Measured values from paper PMC8060642, “Cloning, Expression, Characterization, and Antioxidant Protection of Glutaredoxin3 From Psychrophilic Bacterium Psychrobacter sp. ANT206” (Frontiers in Microbiology, 2021).

These molecules were tested on T1, Ps-Grx3 (assay: GR-coupled NADPH oxidation at […] nm, Lineweaver-Burk). Conditions: 100 mM Tris-HCl pH 8.0, 25 °C; 1.0 mM GSH, 0.2 mM NADPH, 0.6 μg/mL GR; substrate 0.5-2.0 mM.
T1 construct: full length, 87 residues (264 bp ORF), class I dithiol Grx with CPYC motif
Type: biochemical, Psychrobacter sp. ANT206

Km [µM]	Compound
790	N[C@@H](CSS(=O)(=O)O)C(=O)O [S-sulfocysteine]
520	N[C@@H](CSSC[C@H](N)C(=O)O)C(=O)O [L-cystine]
650	O=C1O[C@H]([C@@H](O)CO)C(=O)C1=O [DHA, dehydroascorbate]

Compound	Km [µM]
OCCSSCCO [HED, 2-Hydroxyethyl disulfide]	690
